From US12049439B2 (OrsoBio, Inc., priority 2018, dated 2024)

Tested on: PC-3 cells
Assay: PC-3 Oxygen Rate Consumption (OCR) Assay
Type: cell-based
Conditions: Homo sapiens, 0.05 h, medium with 2% FBS, OCR at 3-min post-injection normalized to % increase over DMSO-treated cells, concentration for half-maximal OCR increase, read-out: EC50-PC3-OCR-FBS-3min
Method in brief: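 Oxygen consumption read on Seahorse XFe96: three basal measurements, then compound injection and 10 cycles over 30 min. EC50 defined as concentration giving half-maximal OCR rise, using 3-min post-injection values as % above DMSO controls, six replicates per treatment, in PC-3 cells in glucose/pyruvate medium.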

SMILES | EC50
N#CC12CCC(NC(=O)c3cc(Cl)ccc3NS(=O)(=O)CCC(F)(F)F)(CC1)CC2 [Example 221, 5-chloro-N-(4-cyanobicyclo[2.2.2]octan-1-yl)-2-((3,3,3-trifluoropropyl)sulfonamido)benzamide] | 1.09 µM
N#CC12CCC(NC(=O)c3cc(F)ccc3NS(=O)(=O)CCC(F)(F)F)(CC1)C2 [Example 222, N-(4-cyanobicyclo[2.2.1]heptan-1-yl)-5-fluoro-2-((3,3,3-trifluoropropyl)sulfonamido)benzamide] | 5.7 µM
N#CC12CCC(NC(=O)c3ccc(F)cc3NS(=O)(=O)CCC(F)(F)F)(CC1)C2 [Example 223, N-(4-cyanobicyclo[2.2.1]heptan-1-yl)-4-fluoro-2-((3,3,3-trifluoropropyl)sulfonamido)benzamide] | 4.43 µM
N#CC12CCC(NC(=O)c3cc(C(F)(F)F)ccc3NS(=O)(=O)N3CC(OC(F)F)C3)(CC1)CC2 [Example 224, N-(4-cyanobicyclo[2.2.2]octan-1-yl)-2-((3-(difluoromethoxy)azetidine)-1-sulfonamido)-5-(trifluoromethyl)benzamide] | 2.42 µM
COC1(C)CN(S(=O)(=O)Nc2ccc(C(F)(F)F)cc2C(=O)NC23CCC(C#N)(CC2)CC3)C1 [Example 225, N-(4-cyanobicyclo[2.2.2]octan-1-yl)-2-((3-methoxy-3-methylazetidine)-1-sulfonamido)-5-(trifluoromethyl)benzamide] | 6.74 µM
N#CC12CCC(NC(=O)c3ccc(SC(F)(F)F)cc3NS(=O)(=O)C3(C#N)CC3)(CC1)CC2 [Example 226, N-(4-cyanobicyclo[2.2.2]octan-1-yl)-2-((1-cyanocyclopropane)-1-sulfonamido)-4-((trifluoromethyl)thio)benzamide] | 7.1 µM
N#CC12CCC(NC(=O)c3cc(C(F)(F)F)ccc3NS(=O)(=O)N3CC(OC(F)(F)F)C3)(CC1)CC2 [Example 227, N-(4-cyanobicyclo[2.2.2]octan-1-yl)-2-((3-(trifluoromethoxy)azetidine)-1-sulfonamido)-5-(trifluoromethyl)benzamide] | 1.45 µM
N#CCCS(=O)(=O)Nc1ccc(Cl)cc1C(=O)NC12CC(C(F)(F)F)(C1)C2 [Example 228, 5-chloro-2-((2-cyanoethyl)sulfonamido)-N-(3-(trifluoromethyl)bicyclo[1.1.1]pentan-1-yl)benzamide] | 3.37 µM
CS(=O)(=O)Nc1ccc(C#N)cc1C(=O)NC12CCC(C(F)(F)F)(CC1)CC2 [Example 229, 5-cyano-2-(methylsulfonamido)-N-(4-(trifluoromethyl)bicyclo[2.2.2]octan-1-yl)benzamide] | 4.42 µM
O=C(NC12CCC(C(F)(F)F)(CC1)CC2)c1ccc(C(F)(F)F)cc1NS(=O)(=O)C1CCS(=O)(=O)CC1 [Example 230, 2-((1,1-dioxidotetrahydro-2H-thiopyran)-4-sulfonamido)-4-(trifluoromethyl)-N-(4-(trifluoromethyl)bicyclo[2.2.2]octan-1-yl)benzamide] | 5.59 µM
O=C(NC12CCC(C(F)(F)F)(CC1)CC2)c1ccc(F)cc1NS(=O)(=O)N1CCS(=O)(=O)CC1 [Example 231, 2-((1,1-dioxidothiomorpholine)-4-sulfonamido)-4-fluoro-N-(4-(trifluoromethyl)bicyclo[2.2.2]octan-1-yl)benzamide] | 4.69 µM
N#CC1CC2(C1)CN(S(=O)(=O)Nc1cc(F)c(F)cc1C(=O)NC13CC(C(F)(F)F)(C1)C3)C2 [Example 232, 2-((6-cyano-2-azaspiro[3.3]heptane)-2-sulfonamido)-4,5-difluoro-N-(3-(trifluoromethyl)bicyclo[1.1.1]pentan-1-yl)benzamide] | 5.58 µM
N#CC1CCN(S(=O)(=O)Nc2ccc(C(F)(F)F)cc2C(=O)NC23CCC(C#N)(CC2)CC3)CC1 [Example 233, N-(4-cyanobicyclo[2.2.2]octan-1-yl)-2-((4-cyanopiperidine)-1-sulfonamido)-5-(trifluoromethyl)benzamide] | 4.79 µM
N#CC1CN(S(=O)(=O)Nc2ccc(C(F)(F)F)cc2C(=O)NC23CC(C(F)(F)F)(C2)C3)C1 [Example 234, 2-((3-cyanoazetidine)-1-sulfonamido)-5-(trifluoromethyl)-N-(3-(trifluoromethyl)bicyclo[1.1.1]pentan-1-yl)benzamide] | 3.86 µM
CS(=O)(=O)Nc1ccc(SC(F)(F)F)cc1C(=O)NC12CCC(C#N)(CC1)CC2 [Example 235, N-(4-cyanobicyclo[2.2.2]octan-1-yl)-2-(methylsulfonamido)-5-((trifluoromethyl)thio)benzamide] | 4.53 µM
CN(C)S(=O)(=O)Nc1cc(F)c(F)cc1C(=O)NC12CCC(C#N)(CC1)CC2 [Example 236, N-(4-cyanobicyclo[2.2.2]octan-1-yl)-2-((N,N-dimethylsulfamoyl)amino)-4,5-difluorobenzamide] | 25.2 µM
O=C(NC12CCC(C(F)(F)F)(CC1)CC2)c1cc(SC(F)(F)F)ccc1NS(=O)(=O)N1CCS(=O)(=O)CC1 [Example 237, 2-((1,1-dioxidothiomorpholine)-4-sulfonamido)-N-(4-(trifluoromethyl)bicyclo[2.2.2]octan-1-yl)-5-((trifluoromethyl)thio)benzamide] | 7.73 µM
O=C(NC12CCC(C(F)(F)F)(CC1)CC2)c1ccc(F)cc1NS(=O)(=O)C1CCS(=O)(=O)CC1 [Example 238, 2-((1,1-dioxidotetrahydro-2H-thiopyran)-4-sulfonamido)-4-fluoro-N-(4-(trifluoromethyl)bicyclo[2.2.2]octan-1-yl)benzamide] | 29.7 µM
O=C(NC12CCC(C(F)(F)F)(CC1)CC2)c1cc(C(F)(F)F)ccc1NS(=O)(=O)C1CCS(=O)(=O)CC1 [Example 239, 2-((1,1-dioxidotetrahydro-2H-thiopyran)-4-sulfonamido)-5-(trifluoromethyl)-N-(4-(trifluoromethyl)bicyclo[2.2.2]octan-1-yl)benzamide] | 7.73 µM
O=C(NC12CCC(C(F)(F)F)(CC1)CC2)c1ccc(OC(F)(F)F)cc1NS(=O)(=O)C1CCS(=O)(=O)CC1 [Example 240, 2-((1,1-dioxidotetrahydro-2H-thiopyran)-4-sulfonamido)-4-(trifluoromethoxy)-N-(4-(trifluoromethyl)bicyclo[2.2.2]octan-1-yl)benzamide] | 3.01 µM
O=C(NC12CCC(C(F)(F)F)(CC1)CC2)c1ccc(Cl)cc1NS(=O)(=O)C1CCS(=O)(=O)CC1 [Example 241, 4-chloro-2-((1,1-dioxidotetrahydro-2H-thiopyran)-4-sulfonamido)-N-(4-(trifluoromethyl)bicyclo[2.2.2]octan-1-yl)benzamide] | 6.38 µM
N#CC1(S(=O)(=O)Nc2ccc(F)cc2C(=O)NC23CC(C(F)(F)F)(C2)C3)CC1 [Example 242, 2-((1-cyanocyclopropane)-1-sulfonamido)-5-fluoro-N-(3-(trifluoromethyl)bicyclo[1.1.1]pentan-1-yl)benzamide] | 4.34 µM
CS(=O)(=O)Nc1ccc(SC(F)(F)F)cc1C(=O)NC12CC(C#N)(C1)C2 [Example 243, N-(3-cyanobicyclo[1.1.1]pentan-1-yl)-2-(methylsulfonamido)-5-((trifluoromethyl)thio)benzamide] | 6.14 µM
CN(C)S(=O)(=O)Nc1ccc(C(F)(F)F)cc1C(=O)NC12CC(C#N)(C1)C2 [Example 244, N-(3-cyanobicyclo[1.1.1]pentan-1-yl)-2-((N,N-dimethylsulfamoyl)amino)-5-(trifluoromethyl)benzamide] | 7.65 µM
O=C(NC12CC(C(F)(F)F)(C1)C2)c1ccc(OC(F)(F)F)cc1NS(=O)(=O)N1CCS(=O)(=O)CC1 [Example 245, 2-((1,1-dioxidothiomorpholine)-4-sulfonamido)-4-(trifluoromethoxy)-N-(3-(trifluoromethyl)bicyclo[1.1.1]pentan-1-yl)benzamide] | 3.84 µM
CS(=O)(=O)N1C2CCC1CN(S(=O)(=O)Nc1ccc(C(F)(F)F)cc1C(=O)NC13CCC(C#N)(CC1)CC3)C2 [Example 246, N-(4-cyanobicyclo[2.2.2]octan-1-yl)-2-(((1R,5S)-8-(methylsulfonyl)-3,8-diazabicyclo[3.2.1]octane)-3-sulfonamido)-5-(trifluoromethyl)benzamide] | 14.5 µM
N#Cc1ccc(C(=O)NC23CC(C(F)(F)F)(C2)C3)c(NS(=O)(=O)N2CCC2)c1 [Example 247, 2-(azetidine-1-sulfonamido)-4-cyano-N-(3-(trifluoromethyl)bicyclo[1.1.1]pentan-1-yl)benzamide] | 4.79 µM
CS(=O)(=O)CCS(=O)(=O)Nc1cc(OC(F)(F)F)ccc1C(=O)NC12CCC(C(F)(F)F)(CC1)CC2 [Example 248, 2-((2-(methylsulfonyl)ethyl)sulfonamido)-4-(trifluoromethoxy)-N-(4-(trifluoromethyl)bicyclo[2.2.2]octan-1-yl)benzamide] | 5.7 µM
